This test deals with T1, hCRTH2 receptor (Homo sapiens, UniProt Q9Y5Y4).
T1 construct: expressed in transfected cells; host or cells: HEK293
T1 sequence (Q9Y5Y4 1-395): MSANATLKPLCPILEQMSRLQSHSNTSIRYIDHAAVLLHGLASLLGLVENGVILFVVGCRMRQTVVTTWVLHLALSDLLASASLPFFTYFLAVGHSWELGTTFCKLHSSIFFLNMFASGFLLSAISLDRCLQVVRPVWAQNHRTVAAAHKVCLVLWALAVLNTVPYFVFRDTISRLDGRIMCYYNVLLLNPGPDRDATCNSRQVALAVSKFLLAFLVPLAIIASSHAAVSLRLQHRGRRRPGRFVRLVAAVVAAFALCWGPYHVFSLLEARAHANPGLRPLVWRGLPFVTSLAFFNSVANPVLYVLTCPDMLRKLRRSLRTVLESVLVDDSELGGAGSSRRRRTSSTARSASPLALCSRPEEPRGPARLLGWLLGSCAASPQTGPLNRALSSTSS
As to the kind of experiment: Radioligand displacement assay (3H-PGD2) on hCRTH2 receptor membranes. Conditions: antagonistic activity; 3H-PGD2 displacement on HEK293-hCRTH2 membrane fragments. The test is classed as binding. (In a radioligand displacement assay an active substance lowers the binding of a labelled ligand.)
The term IC50 denotes the concentration at which inhibition is half-maximal. Higher therefore signals weaker potency. `O=C(O)COc1ccc(F)cc1C1c2ccccc2CCN1C(=O)NCCc1ccccc1Cl` (racemic) [Example 204, (±)-(2-{2-[2-(2-Chloro-phenyl)-ethylcarbamoyl]-1,2,3,4-tetrahydro-isoquinolin-1-yl}-4-fluoro-phenoxy)-acetic acid] yielded an IC50 of 83 nM. The same measure for `O=C(O)COc1ccc(F)cc1C1c2ccccc2CCN1C(=O)CNS(=O)(=O)c1ccccc1` (racemic) [Example 205]: 928 nM; for `Cc1noc(C)c1S(=O)(=O)NCC(=O)N1CCc2ccccc2C1c1cc(F)ccc1OCC(=O)O` (racemic) [Example 206]: 819 nM.

Regarding `O=C(O)COc1ccc(F)cc1C1c2ccccc2CCN1C(=O)CNS(=O)(=O)c1cccc(F)c1` (racemic) [Example 207], the IC50 came out at 347 nM.

For `O=C(O)COc1ccc(F)cc1C1c2ccccc2CCN1C(=O)CNS(=O)(=O)c1ccccc1F` (racemic) [Example 208], the IC50 amounted to 983 nM. The same measure for `O=C(O)COc1ccc(F)cc1C1c2ccccc2CCN1C(=O)CNS(=O)(=O)c1ccc(F)c(F)c1` (racemic) [Example 209]: 644 nM; for `CN(CC(=O)N1CCc2ccccc2C1c1cc(F)ccc1OCC(=O)O)S(=O)(=O)c1ccccc1` (racemic) [Example 210]: 423 nM. `CN(CC(=O)N1CCc2ccccc2C1c1cc(F)ccc1OCC(=O)O)S(=O)(=O)c1cccc(F)c1` (racemic) [Example 211] registered an IC50 of 261 nM.

For `CN(CC(=O)N1CCc2ccccc2C1c1cc(F)ccc1OCC(=O)O)S(=O)(=O)c1ccc(F)c(F)c1` (racemic) [Example 212], the IC50 was 920 nM. The same measure for `NC(=O)c1ccc(OCC(=O)O)c(C2c3ccccc3CCN2C(=O)OCc2ccccc2)c1` (racemic) [Example 213, (±)-1-(5-Carbamoyl-2-carboxymethoxy-phenyl)-3,4-dihydro-1H-isoquinoline-2-carboxylic acid benzyl ester]: 344 nM.

The molecule `O=C(O)COc1ccc(-c2noc(=S)[nH]2)cc1C1c2ccccc2CCN1C(=O)OCc1ccccc1` (racemic) [Example 214, (±)-1-[2-Carboxymethoxy-5-(5-thioxo-4,5-dihydro-[1,2,4]oxadiazol-3-yl)-phenyl]-3,4-dihydro-1H-isoquinoline-2-carboxylic acid benzyl ester] showed an IC50 of 147 nM.

`O=C(O)COc1cc(F)ccc1C1c2ccccc2CCN1C(=O)OCc1ccccc1` (racemic) [Example 215, (±)-1-(2-Carboxymethoxy-4-fluoro-phenyl)-3,4-dihydro-1H-isoquinoline-2-carboxylic acid benzyl ester] yielded an IC50 of 27 nM. For `O=C(O)COc1cccc(F)c1C1c2ccccc2CCN1C(=O)OCc1ccccc1` (racemic) [Example 216, (±)-1-(2-Carboxymethoxy-6-fluoro-phenyl)-3,4-dihydro-1H-isoquinoline-2-carboxylic acid benzyl ester], the IC50 is 182 nM.

The molecule `O=C(O)CCCOc1ccc(F)cc1C1c2ccccc2CCN1C(=O)OCc1ccccc1` (racemic) [Example 217, (±)-1-[2-(3-Carboxy-propoxy)-5-fluoro-phenyl]-3,4-dihydro-1H-isoquinoline-2-carboxylic acid benzyl ester] yielded an IC50 of 110 nM.

`N#Cc1ccc(OCC(=O)O)c(C2c3ccccc3CCN2C(=O)[C@@H]2C[C@H]2c2ccccc2)c1` (mixture of isomers) [Example 218, (±)-{4-Cyano-2-[2-(trans-2-phenyl-cyclopropanecarbonyl)-1,2,3,4-tetrahydro-isoquinolin-1-yl]-phenoxy}-acetic acid] came in with an IC50 of 13.4 nM. Regarding `N#Cc1ccc(OCC(=O)O)c(C2c3ccccc3CCN2C(=O)OCc2ccccc2)c1` (racemic) [Example 219, (±)-1-(2-Carboxymethoxy-5-cyano-phenyl)-3,4-dihydro-1H-isoquinoline-2-carboxylic acid benzyl ester], the IC50 came to 4.72 nM.

In turn, `CS(=O)(=O)Nc1cccc2c1CCN(C(=O)OCc1ccccc1)C2c1cc(F)ccc1OCC(=O)O` (racemic) [Example 222, (±)-1-(2-Carboxymethoxy-5-fluoro-phenyl)-5-methanesulfonylamino-3,4-dihydro-1H-isoquinoline-2-carboxylic acid benzyl ester] came in with an IC50 of 141 nM. In the case of `O=C(O)COc1ccc(-n2ccnn2)cc1C1c2ccccc2CCN1C(=O)OCc1ccccc1` (racemic) [Example 223, (±)-1-(2-Carboxymethoxy-5-[1,2, 3]triazol-1-yl-phenyl)-3,4-dihydro-1H-isoquinoline-2-carboxylic acid benzyl ester], the IC50 was 7.01 nM. The value for `O=C(O)COc1ccc(-n2nccn2)cc1C1c2ccccc2CCN1C(=O)OCc1ccccc1` (racemic) [Example 224, (±)-1-(2-Carboxymethoxy-5-[1,2, 3]triazol-2-yl-phenyl)-3,4-dihydro-1H-isoquinoline-2-carboxylic acid benzyl ester] was 12.7 nM; that for `COc1ccccc1CNC(=S)N1CCc2ccccc2C1c1cc(Cl)ccc1OCC(=O)O` (racemic) [Example 225, (±)-{4-Chloro-2-[2-(2-methoxy-benzylthiocarbamoyl)-1,2,3,4-tetrahydro-isoquinolin-1-yl]-phenoxy}-acetic acid] was 76.5 nM. The value for `O=C(O)COc1ccc(Cl)cc1C1c2ccc(F)cc2CCN1C(=O)OCc1ccccc1` (racemic) [Example 226, (±)-1-(2-Carboxymethoxy-5-chloro-phenyl)-6-fluoro-3,4-dihydro-1H-isoquinoline-2-carboxylic acid benzyl ester] was 5.23 nM.

For the molecule `O=C(O)COc1ccc(Cl)cc1C1c2ccccc2CCN1C(=O)OCc1ccccc1Br` (racemic) [Example 227], the IC50 is 7.21 nM. The value for `O=C(O)COc1ccc(Cl)cc1C1c2ccccc2CN1C(=O)OCc1ccccc1` (racemic) [Example 230] was 12.8 nM; that for `COc1ccccc1COC(=O)N1CCc2ccccc2C1c1cc(Cl)ccc1OCC(=O)O` (racemic) [Example 233] was 4.55 nM; that for `O=C(O)COc1ccc(Cl)cc1C1c2ccccc2CCN1C(=O)OCc1ccccc1F` (racemic) [Example 234] was 3.61 nM. The same measure for `Cc1ccccc1COC(=O)N1CCc2ccccc2C1c1cc(Cl)ccc1OCC(=O)O` (racemic) [Example 235]: 5.62 nM; for `O=C(O)COc1ccc(Cl)cc1C1c2ccccc2CCN1C(=O)OCc1ccccc1C(F)(F)F` (racemic) [Example 236]: 5.59 nM. The same measure for `COc1cccc(COC(=O)N2CCc3ccccc3C2c2cc(Cl)ccc2OCC(=O)O)c1` (racemic) [Example 237]: 4.02 nM. On to `O=C(O)COc1ccc(Cl)cc1C1c2ccccc2CCN1C(=O)OCc1cccc(F)c1` (racemic) [Example 238], for which the IC50 was found to be 12.6 nM. The molecule `Cc1cccc(COC(=O)N2CCc3ccccc3C2c2cc(Cl)ccc2OCC(=O)O)c1` (racemic) [Example 239] yielded an IC50 of 17.7 nM.

`O=C(O)COc1ccc(Cl)cc1C1c2ccccc2CCN1C(=O)OCc1cccc(C(F)(F)F)c1` (racemic) [Example 240]: the IC50 came out at 18.6 nM. Take `O=C(O)COc1ccc(Cl)cc1C1c2ccccc2CCN1C(=O)OCc1ccc(Cl)cc1Cl` (racemic) [Example 241]: the IC50 was determined as 0.96 nM. The same measure for `O=C(O)COc1ccc(Cl)cc1C1c2ccccc2CCN1C(=O)OCc1cccc(Cl)c1Cl` (racemic) [Example 242]: 1.07 nM; for `O=C(O)COc1ccc(Cl)cc1C1c2ccccc2CCN1C(=O)OCc1c(Cl)cccc1Cl` (racemic) [Example 243]: 6.48 nM; for `COc1cccc(OC)c1COC(=O)N1CCc2ccccc2C1c1cc(Cl)ccc1OCC(=O)O` (racemic) [Example 244]: 7.67 nM. `Cc1ccc(COC(=O)N2CCc3ccccc3C2c2cc(Cl)ccc2OCC(=O)O)c(C)c1` (racemic) [Example 245]: the IC50 came out at 2.87 nM. The same measure for `Cc1cccc(COC(=O)N2CCc3ccccc3C2c2cc(Cl)ccc2OCC(=O)O)c1C` (racemic) [Example 246]: 3.43 nM. `Cc1cccc(C)c1COC(=O)N1CCc2ccccc2C1c1cc(Cl)ccc1OCC(=O)O` (racemic) [Example 247] had an IC50 of 17.3 nM. The value for `O=C(O)COc1ccc(Cl)cc1C1c2ccccc2CCN1C(=O)OCc1ccc(F)cc1F` (racemic) [Example 248] was 3.3 nM. The value for `O=C(O)COc1ccc(Cl)cc1C1c2ccccc2CCN1C(=O)OCc1cccc(F)c1F` (racemic) [Example 249] was 3.86 nM; that for `O=C(O)COc1ccc(Cl)cc1C1c2ccccc2CCN1C(=O)OCc1c(F)cccc1F` (racemic) [Example 250] was 6.84 nM; that for `Cc1cc(C)c(COC(=O)N2CCc3ccccc3C2c2cc(Cl)ccc2OCC(=O)O)c(C)c1` (racemic) [Example 251] was 12.3 nM. The value for `O=C(O)COc1ccc(Cl)cc1C1c2ccccc2CCN1C(=O)OCc1c(F)cccc1Cl` (racemic) [Example 252] was 3.98 nM. As for `O=C(O)COc1ccc(Cl)cc1C1c2ccccc2CCN1C(=O)OCc1cc(Cl)ccc1Cl` (racemic) [Example 253], the IC50 was determined as 6.52 nM. In turn, `COc1ccc(COC(=O)N2CCc3ccccc3C2c2cc(Cl)ccc2OCC(=O)O)c(OC)c1` (racemic) [Example 254] yielded an IC50 of 16 nM. In the case of `COc1cccc(COC(=O)N2CCc3ccccc3C2c2cc(Cl)ccc2OCC(=O)O)c1OC` (racemic) [Example 255], the IC50 was 4.9 nM. Turning to `Cc1ccc(COC(=O)N2CCc3ccccc3C2c2cc(Cl)ccc2OCC(=O)O)c(C)n1` (racemic) [Example 256], the IC50 was determined as 14.1 nM.
